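In this assay, cells in 96-well plates receive the compound at five concentrations for 48 hours. Endpoints are linearly interpolated between the surrounding concentrations. GI50 is the concentration that inhibits growth by half. TGI marks complete inhibition of growth.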
Legend:
Test in all cases: NCI-60 cell line screen, 48 h; in the data active means GI50 below about 0.43 µM; inactive means the rest
[1] = test system: M14 melanoma
[2] = test system: SK-MEL-5 melanoma
[3] = test system: CCRF-CEM leukemia
[4] = test system: SW-620 colon
[5] = test system: A498 renal
[6] = test system: CAKI-1 renal
[7] = test system: PC-3 prostate
[8] = test system: BT-549 breast
[9] = test system: NCI/ADR-RES ovarian
[10] = test system: OVCAR-8 ovarian

CCCCCCc1cc(C(=O)Nc2cccc(C(F)(F)F)c2)nc(N)n1
> 100 µM: TGI [1] | TGI [2] | TGI [3] | TGI [4] | TGI [5] | TGI [6]

O=C(/C(=C/c1ccc([N+](=O)[O-])cc1)c1ccccc1)c1ccccc1
7.12 µM: TGI [8]
8.86 µM: TGI [5]
> 100 µM: TGI [1] | TGI [7] | TGI [9] | TGI [3]
inactive: GI50 [1] 3.08 µM | GI50 [7] 4.28 µM | GI50 [8] 2.57 µM | GI50 [9] 3.23 µM | GI50 [3] 2.25 µM | GI50 [5] 1.98 µM

CCOC(=O)C(=O)Nc1c(CC)cccc1C(C)C
> 100 µM: TGI [1] | TGI [4] | TGI [10] | TGI [5] | TGI [6]

Cc1cc2c(C)n(Cc3ccc(Cl)cc3Cl)nc2c(C#N)c1C
> 100 µM: TGI [1] | TGI [2] | TGI [3] | TGI [4] | TGI [10] | TGI [5] | TGI [6]

CCN(C(=O)N1CCN(c2cc3c(cc2F)c(=O)c(C(=O)O)cn3C2CC2)CC1)c1nc(-c2ccc(C)cc2)cs1
inactive: GI50 [1] 0.928 µM | GI50 [2] 0.858 µM | GI50 [4] 0.653 µM | GI50 [10] 1.41 µM | GI50 [6] 1.4 µM
> 100 µM: TGI [1] | TGI [7] | TGI [2] | TGI [3] | TGI [4] | TGI [10] | TGI [6]
1.56 µM: TGI [8]
active: GI50 [7] 0.375 µM | GI50 [8] 0.336 µM | GI50 [3] 0.356 µM
0.486 µM: TGI [5]

COc1ccc(N=c2ssc3c(=S)ssc23)cc1
> 100 µM: TGI [6]
48.6 µM: TGI [1]
57.1 µM: TGI [2]
35.8 µM: TGI [4]
43.9 µM: TGI [10]
28.2 µM: TGI [3]

CN(C)c1ccc2c(c1)Sc1cc(N(C)C)ccc1N2C(=O)c1ccccc1
> 100 µM: TGI [1] | TGI [7] | TGI [9] | TGI [2] | TGI [3] | TGI [4] | TGI [10] | TGI [5] | TGI [6]
inactive: GI50 [1] 75 µM | GI50 [7] 12.9 µM | GI50 [9] 33.7 µM | GI50 [2] 28.1 µM | GI50 [3] > 100 µM | GI50 [4] 71.6 µM | GI50 [10] 50.3 µM | GI50 [5] 32.3 µM | GI50 [6] 14.7 µM

Brc1cccc(C2SCc3nc4ccccc4n32)c1 (centres undefined)
60.7 µM: TGI [10]
> 100 µM: TGI [3] | TGI [4] | TGI [6]
53.1 µM: TGI [1]
18.9 µM: TGI [2]

CCCCCCCCCCCC(=O)OCCOCCOCCOCCOCCOCc1ccc(OC)cc1
> 100 µM: TGI [1] | TGI [2] | TGI [3] | TGI [4] | TGI [10] | TGI [5] | TGI [6]

O=C1C(=O)N(c2ccc(Cl)c(Cl)c2)C(=O)C(=O)C1c1nc2ccccc2s1
> 100 µM: TGI [1] | TGI [2] | TGI [3] | TGI [4] | TGI [10] | TGI [5] | TGI [6]

CCN=C1C=CC(=C(c2ccc(N)cc2)c2ccc(N(CC)CC)c(C)c2)C=C1
1.62 µM: TGI [4]
8.15 µM: TGI [6]
> 100 µM: TGI [9]
4.33 µM: TGI [7]
0.44 µM: TGI [2]
inactive: GI50 [9] 2.74 µM | GI50 [6] 1.92 µM
active: GI50 [1] 0.349 µM | GI50 [7] 0.205 µM | GI50 [2] 0.208 µM | GI50 [3] 0.306 µM | GI50 [4] 0.345 µM | GI50 [5] 0.24 µM
0.931 µM: TGI [5]
5.35 µM: TGI [3]
1.77 µM: TGI [1]

CCOC(=O)C(C)(c1cn(C)c2ccccc12)c1cn(C)c2ccccc12
> 100 µM: TGI [1] | TGI [2] | TGI [3] | TGI [4] | TGI [10] | TGI [5] | TGI [6]

CN(C)c1nc(=Nc2ccc3ccccc3c2)ss1
29.9 µM: TGI [2]
73.5 µM: TGI [3]
> 100 µM: TGI [1] | TGI [4] | TGI [10] | TGI [5] | TGI [6]

CS(=O)(=O)Oc1cccc(/C=N/N=C(\N)NO)c1
63.4 µM: TGI [4]
> 100 µM: TGI [1] | TGI [3] | TGI [10] | TGI [5] | TGI [6]

Cn1cnc2nc(Cl)nc(NC(C)(C)C(C)(C)O)c21
> 100 µM: TGI [1] | TGI [2] | TGI [3] | TGI [4] | TGI [10] | TGI [5] | TGI [6]

C[Si](C)(C)OC1(C#N)C2C3CC4C2C(=O)C2C4C3C21 (centres undefined)
> 100 µM: TGI [1] | TGI [2] | TGI [3] | TGI [4] | TGI [10] | TGI [5] | TGI [6]

COc1ccc(OC)c(NC(=O)CCC/C(CC(=O)c2ccc(O)c(OC)c2)=N\NC(=O)C[N+](C)(C)C)c1
> 100 µM: TGI [1] | TGI [2] | TGI [3] | TGI [4] | TGI [10] | TGI [5] | TGI [6]

Cc1ccc(-c2cc(-c3ccc(C)cc3)nc(NCCNc3ccnc4cc(Cl)ccc34)n2)cc1
2.82 µM: TGI [6]
3.46 µM: TGI [5]
inactive: GI50 [1] 1.78 µM | GI50 [2] 1.83 µM | GI50 [4] 1.71 µM | GI50 [10] 1.88 µM | GI50 [5] 1.89 µM | GI50 [6] 1.43 µM
3.88 µM: TGI [10]
3.49 µM: TGI [4]
3.44 µM: TGI [2]
3.65 µM: TGI [1]

COC1CC(OS(=O)(=O)c2ccc(C)cc2)C(OC(=O)c2ccccc2)C(C)O1 (centres undefined)
inactive: GI50 [1] > 100 µM | GI50 [2] > 100 µM | GI50 [3] > 100 µM | GI50 [4] > 100 µM | GI50 [10] > 100 µM | GI50 [5] > 100 µM | GI50 [6] > 100 µM
> 100 µM: TGI [1] | TGI [2] | TGI [3] | TGI [4] | TGI [10] | TGI [5] | TGI [6]

CCOC(=O)C1=C(NC)OC/C1=N\NC(=O)c1ccccc1O
> 100 µM: TGI [1] | TGI [2] | TGI [3] | TGI [4] | TGI [10] | TGI [5] | TGI [6]

C=C1CC[C@@H]2[C@](C)(COC(C)=O)[C@@H](O)CC[C@@]2(C)[C@@H]1COc1ccc2ccc(=O)oc2c1
> 100 µM: TGI [1] | TGI [7] | TGI [8] | TGI [9] | TGI [2] | TGI [3] | TGI [4] | TGI [10] | TGI [6]
inactive: GI50 [1] > 100 µM | GI50 [7] > 100 µM | GI50 [8] 47.8 µM | GI50 [9] > 100 µM | GI50 [2] > 100 µM | GI50 [3] > 100 µM | GI50 [4] > 100 µM | GI50 [10] > 100 µM | GI50 [6] > 100 µM

Source: PubChem BioAssay (NCI)
